{
  "source": "patent US8822486B2",
  "about": "“Spiropiperidine compounds” (Eli Lilly and Company, priority 2009, dated 2014)",
  "key": {"Male Balb/c mice": {"tested_on": "Male Balb/c mice", "assay": "Intraperitoneal Glucose Tolerance Test (IPGTT)", "assay_type": "in vivo, mouse", "details": "oral", "protocol": "To examine the ability of exemplified compounds to activate GPR40 in-vivo resulting in anti-diabetic efficacy, i.e. an increase in insulin and reduction in glucose levels, a 4-day intraperitoneal glucose tolerance test (ipGTT) study is completed with each compound tested in the IPGTT.\nMale Balb/c (Albino mice) mice (8-9 weeks of age) are single housed and fed with normal rodent chow diet and water ad libitum. Animals are weighed and randomized by body weight and daily body weights are recorded. Upon study initiation, animals are dosed once per day orally for three days using a formulation carrying methylcellulose and tween-80. On the night before the 4-day IPGTT study, animals are fasted overnight in clean cages. On the morning of the IPGTT (Day 4), animals are dosed orally with compound or vehicle alone 60 minutes prior to the IPGTT (glucose 2 g/kg, i.p.). Blood glucose levels are determined from tail bleeds taken at 0, 3, 7, 15, 30, and 60 min after glucose challenge. Plasma is isolated and used to estimate respective insulin levels. The blood glucose excursion profile from t=0 to t=60 min is used to integrate an area under the curve (AUC) for each treatment. Percent lowering in glucose is calculated from the AUC data of the compounds with respect to the AUC of vehicle group. The test compound is orally administered at 0.1, 0.3, 1.0, 3.0, or 10 mg/kg, and a positive control is administered at 10 mg/kg."}, "Gal4 PPARδ": {"target": "T1, Gal4 PPARδ (Homo sapiens, UniProt Q03181)", "T1 construct": "expressed in transfected cells; host or cells: CV1 (African green monkey kidney)", "T1 sequence (Q03181 211-439 limits assumed)": "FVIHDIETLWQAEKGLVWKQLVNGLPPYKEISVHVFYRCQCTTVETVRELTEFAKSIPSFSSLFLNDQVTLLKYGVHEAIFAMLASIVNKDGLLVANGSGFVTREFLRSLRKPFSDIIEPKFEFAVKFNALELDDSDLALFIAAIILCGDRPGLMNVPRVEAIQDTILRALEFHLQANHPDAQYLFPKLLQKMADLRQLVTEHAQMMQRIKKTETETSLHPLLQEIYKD", "assay": "Gal4 PPARδ reporter functional assay in CV1 cells", "assay_type": "cell-based", "details": "examined up to 10 μM, luciferase reporter, 24 hours", "from_the_text": "Gal4 PPARα, Gal4 PPARδ, and PPARγ reporter functional assays are also used to monitor the selectivity of exemplified compounds. CV1 cells, which are derived from the renal tissue of an African green monkey, are transfected with various receptor and reporter plasmids using Fugene. For the Gal4 PPARα and PPARδ assays, a reporter plasmid containing five tandem copies of the yeast transcription protein Gal4 response element, cloned upstream of a firefly luciferase gene driven by the major late promoter of adenovirus, is transfected together with a Simian Virus 40 (SV40) driven plasmid constitutively expressing a hybrid protein containing the Gal4 DNA binding domain (DBD), and either the PPARα or PPARδ ligand binding. For the PPARγ assay, plasmids encoding PPARγ and RXRα, both driven by a cytomegalovirus (CMV) promoter are transfected together with a plasmid containing luciferase reporter cDNA driven by the TK promoter and a receptor response element (2×PPRE). Cells are transfected in T225 cm^2 cell culture flasks in DMEM media with 5% charcoal-stripped FBS. […] After 24 hours incubation with compounds, cells are lysed and luciferase activity is determined as a measure of receptor activation by luminescence. […] The maximum percent stimulation is determined versus maximum stimulation obtained with 10 μM of an appropriate PPAR agonist reference compound. […]"}, "[1]": {"tested_on": "primary rodent pancreatic islets of Langerhans", "assay": "GDIS assay in primary rodent pancreatic islets", "assay_type": "cell-based", "details": "male SD rat islets; different concentrations; compared to 11.2 mM glucose alone; 90 min", "from_the_text": "Because activation of GPR40 is known to result in insulin secretion which is dependent on high glucose concentrations, two separate assay systems (insulinoma cell line and primary rodent islets) are developed to further characterize compounds that are known to increase intracellular calcium in the GPR40 primary assay discussed above.\nGDIS assays using primary rodent pancreatic islets of Langerhans are also used to characterize exemplified compounds. Pancreatic islets are isolated from male SD (Sprague Dawley) rats by collagenase digestion and Histopaque density gradient separation. The islets are cultured overnight in RPMI-1640 medium with GlutaMAXn (stabilized, dipeptide form of L-glutamine (Invitrogen catalog #61870-010)) to facilitate recovery from the isolation process. Insulin secretion is determined by a 90 minute incubation in EBSS (Earle's Balances Salt Solution) buffer in a 48-well plate. Briefly, islets are first preincubated in EBSS with 2.8 mM glucose for 30 min and are then transferred to a 48-well plate (four islets/well) containing 150 μl 2.8 mM glucose and incubated with 150 μl of EBSS with 2.8 or 11.2 mM glucose in the presence or absence of test compounds for 90 minutes. The buffer is removed from the wells at the end of the incubation and assayed for insulin levels using the Rat Insulin ELISA kit (Mercodia). […]"}, "[2]": {"details": "Example 1 at 0.1, 0.3, 1.0 and 3.0 mg/kg, positive control 10 mg/kg"}},
  "data": [
    {"compound": "CC#C[C@@H](CC(=O)O)c1ccc(OCc2ccc(CN3CCC4(C=Cc5ccccc54)CC3)s2)cc1", "note": "[Example 1, (3S)-3-[4-[[5-(Spiro[indene-1,4′-piperidine]-1′-ylmethyl)-2-thienyl]methoxy]phenyl]hex-4-ynoic acid]", "values": [
      {"measurement": "ED50", "setting": "Male Balb/c mice; Mus musculus, once per day, 4-day study, glucose 2 g/kg i.p., AUC t=0 to 60 min, read-out: ED50 based on AUCs for glucose lowering", "result": 0.21, "unit": "mg/kg"},
      {"measurement": "glucose levels at the 3 minute time point", "setting": "Male Balb/c mice; Example 1 0.1, 0.3, 1.0, 3.0 or 10 mg/kg, positive control 10 mg/kg", "result": "No concentration of the compound of Example 1 or the positive control significantly lowered glucose levels"},
      {"measurement": "glucose levels at the 15 minute time point", "setting": "Male Balb/c mice; Example 1 at 0.1, 0.3, 1.0 and 3.0 mg/kg", "result": "significantly lowered"},
      {"measurement": "glucose levels at the 30 minute time point", "setting": "Male Balb/c mice; [2]", "result": "significantly lowered"},
      {"measurement": "glucose levels at the 60 minute time point", "setting": "Male Balb/c mice; [2]", "result": "significantly lowered"},
      {"measurement": "glucose levels at the 7 minute time point", "setting": "Male Balb/c mice; Example 1 at 0.3, 1.0, 3.0 and 10 mg/kg, positive control 10 mg/kg", "result": "significantly lowered"},
      {"measurement": "insulin levels", "setting": "Male Balb/c mice; at the 3.0 and 10.0 mg/kg dose", "result": "significantly elevated"},
      {"measurement": "functional activation of PPARδ", "setting": "Gal4 PPARδ", "result": "No functional activation"},
      {"measurement": "increase in insulin", "setting": "[1]", "result": "2- to 4 fold"}
    ]}
  ]
}
